Measured values as given in PubChem BioAssay AID1259407 (Chemical Carcinogenesis Research Information System (CCRIS), 2018).
Activity calls are given as the source filed them. The rule behind the calls is not given here.

Tested on: CCRIS mutagenicity, Ames/micronucleus/aberration tests
Experiment: CCRIS mutagenicity studies
[1] = Test System: AMES SALMONELLA TYPHIMURIUM, Strain/Indicator: TA98, Metabolic Activation: NONE, Method: STANDARD PLATE
[2] = Test System: AMES SALMONELLA TYPHIMURIUM, Strain/Indicator: TA98, Metabolic Activation: RAT, LIVER, S-9, AROCLOR 1254, Method: STANDARD PLATE
[3] = Test System: AMES SALMONELLA TYPHIMURIUM, Strain/Indicator: TA100, Metabolic Activation: NONE, Method: STANDARD PLATE
[4] = Test System: AMES SALMONELLA TYPHIMURIUM, Strain/Indicator: TA100, Metabolic Activation: RAT, LIVER, S-9, AROCLOR 1254, Method: STANDARD PLATE
[5] = Test System: AMES SALMONELLA TYPHIMURIUM, Strain/Indicator: TA100, Metabolic Activation: NONE, Method: PREINCUBATION
[6] = Test System: AMES SALMONELLA TYPHIMURIUM, Strain/Indicator: TA1535, Metabolic Activation: NONE, Method: STANDARD PLATE
[7] = Test System: AMES SALMONELLA TYPHIMURIUM, Strain/Indicator: TA1535, Metabolic Activation: RAT, LIVER, S-9, AROCLOR 1254, Method: STANDARD PLATE
[8] = Test System: AMES SALMONELLA TYPHIMURIUM, Strain/Indicator: TA1537, Metabolic Activation: NONE, Method: STANDARD PLATE
[9] = Test System: AMES SALMONELLA TYPHIMURIUM, Strain/Indicator: TA1537, Metabolic Activation: RAT, LIVER, S-9, AROCLOR 1254, Method: STANDARD PLATE
[10] = Test System: AMES SALMONELLA TYPHIMURIUM, Strain/Indicator: TA98, Metabolic Activation: S-9, Method: STANDARD PLATE
[11] = Test System: AMES SALMONELLA TYPHIMURIUM, Strain/Indicator: TA100, Metabolic Activation: S-9, Method: STANDARD PLATE
[12] = Test System: AMES SALMONELLA TYPHIMURIUM, Strain/Indicator: TA1535, Metabolic Activation: S-9, Method: STANDARD PLATE
[13] = Test System: AMES SALMONELLA TYPHIMURIUM, Strain/Indicator: TA1537, Metabolic Activation: S-9, Method: STANDARD PLATE

Q: Which results are given for ClCC1C(CCl)[C@@]2(Cl)C(Cl)=C(Cl)[C@]1(Cl)C2(Cl)Cl (some centres undefined)?
A: mutagenic call (Test System: AMES SALMONELLA TYPHIMURIUM, Strain/Indicator: TA97, Metabolic Activation: NONE, Method: STANDARD PLATE): inactive; negative; mutagenic call (Test System: AMES SALMONELLA TYPHIMURIUM, Strain/Indicator: TA97, Metabolic Activation: RAT, LIVER, S-9, AROCLOR 1254, Method: STANDARD PLATE): inactive; negative; mutagenic call [1]: inactive; negative; mutagenic call [2]: inactive; negative; mutagenic call [3]: inactive; negative; mutagenic call [4]: inactive; negative; mutagenic call (Test System: AMES SALMONELLA TYPHIMURIUM, Strain/Indicator: TA102, Metabolic Activation: NONE, Method: STANDARD PLATE): inactive; negative; mutagenic call (Test System: AMES SALMONELLA TYPHIMURIUM, Strain/Indicator: TA102, Metabolic Activation: RAT, LIVER, S-9, AROCLOR 1254, Method: STANDARD PLATE): inactive; negative

Q: With Cn1cc(C(=O)O)c(=O)c2ccc(/C=C/c3ccc([N+](=O)[O-])o3)nc21 as the compound, how does the mutagenic call (Test System: AMES SALMONELLA TYPHIMURIUM, Strain/Indicator: TA100, Metabolic Activation: RAT, LIVER, S-9, KC500 OR PHENOBARBITAL, Method: LIQUID SUSPENSION) read?
A: active; positive

Q: How did the mutagenic call (Test System: AMES SALMONELLA TYPHIMURIUM, Strain/Indicator: TA98, Metabolic Activation: NONE, Method: PREINCUBATION) turn out when CCCCCCCCCCCCc1ccccc1 was run?
A: inactive; negative

Q: And the mutagenic call (Test System: AMES SALMONELLA TYPHIMURIUM, Strain/Indicator: TA98, Metabolic Activation: RAT, LIVER, S-9, KC 500, Method: PREINCUBATION)?
A: inactive; negative

Q: What about the mutagenic call [5] of the same compound?
A: inactive; negative

Q: And the mutagenic call (Test System: AMES SALMONELLA TYPHIMURIUM, Strain/Indicator: TA100, Metabolic Activation: RAT, LIVER, S-9, KC 500, Method: PREINCUBATION)?
A: inactive; negative

Q: And the mutagenic call (Test System: AMES SALMONELLA TYPHIMURIUM, Strain/Indicator: TA1535, Metabolic Activation: NONE, Method: PREINCUBATION)?
A: inactive; negative

Q: And the mutagenic call (Test System: AMES SALMONELLA TYPHIMURIUM, Strain/Indicator: TA1535, Metabolic Activation: RAT, LIVER, S-9, KC 500, Method: PREINCUBATION)?
A: inactive; negative

Q: And the mutagenic call (Test System: AMES SALMONELLA TYPHIMURIUM, Strain/Indicator: TA1537, Metabolic Activation: NONE, Method: PREINCUBATION)?
A: inactive; negative

Q: What about the mutagenic call (Test System: AMES SALMONELLA TYPHIMURIUM, Strain/Indicator: TA1537, Metabolic Activation: RAT, LIVER, S-9, KC 500, Method: PREINCUBATION) of the same compound?
A: inactive; negative

Q: What about the mutagenic call (Test System: AMES SALMONELLA TYPHIMURIUM, Strain/Indicator: TA1538, Metabolic Activation: NONE, Method: PREINCUBATION) of the same compound?
A: inactive; negative

Q: What about the mutagenic call (Test System: AMES SALMONELLA TYPHIMURIUM, Strain/Indicator: TA1538, Metabolic Activation: RAT, LIVER, S-9, KC 500, Method: PREINCUBATION) of the same compound?
A: inactive; negative

Q: What about the mutagenic call (Test System: E. COLI, Strain/Indicator: WP2 UVRA, Metabolic Activation: NONE, Method: PREINCUBATION) of the same compound?
A: inactive; negative

Q: And the mutagenic call (Test System: E. COLI, Strain/Indicator: WP2 UVRA, Metabolic Activation: RAT, LIVER, S-9, KC 500, Method: PREINCUBATION)?
A: inactive; negative

Q: CCCCS(=O)(=O)n1ncc(Cl)c(Cl)c1=O was tested. Which mutagenic call [1] did it give?
A: inactive; negative

Q: What about the mutagenic call [2] of the same compound?
A: inactive; negative

Q: What about the mutagenic call [3] of the same compound?
A: active; positive

Q: And the mutagenic call [4]?
A: active; positive

Q: And the mutagenic call [6]?
A: inactive; negative

Q: What about the mutagenic call [7] of the same compound?
A: active; positive

Q: What about the mutagenic call [8] of the same compound?
A: inactive; negative

Q: And the mutagenic call [9]?
A: inactive; negative

Q: Which mutagenic call (Test System: AMES SALMONELLA TYPHIMURIUM, Strain/Indicator: TA97, Metabolic Activation: NONE, Method: PREINCUBATION) does the source give for CCNC(=O)CC[C@H](N)C(=O)O here?
A: inactive; negative

Q: And the mutagenic call (Test System: AMES SALMONELLA TYPHIMURIUM, Strain/Indicator: TA97, Metabolic Activation: RAT, LIVER, S-9, AROCLOR 1254, Method: PREINCUBATION)?
A: inactive; negative

Q: What about the mutagenic call (Test System: AMES SALMONELLA TYPHIMURIUM, Strain/Indicator: TA102, Metabolic Activation: NONE, Method: PREINCUBATION) of the same compound?
A: inactive; negative

Q: What about the mutagenic call (Test System: AMES SALMONELLA TYPHIMURIUM, Strain/Indicator: TA102, Metabolic Activation: RAT, LIVER, S-9, AROCLOR 1254, Method: PREINCUBATION) of the same compound?
A: inactive; negative

Q: Which results are given for c1ccc2c(c1)-c1c(ccc3ccccc13)[C@H]1N[C@@H]21?
A: mutagenic call (Test System: AMES SALMONELLA TYPHIMURIUM, Strain/Indicator: TA98, Metabolic Activation: NONE, Method: PREINCUBATION (KCL-CONTAINING MEDIUM)): active; positive; mutagenic call (Test System: AMES SALMONELLA TYPHIMURIUM, Strain/Indicator: TA98, Metabolic Activation: NONE, Method: PREINCUBATION (KCL-FREE MEDIUM)): active; positive; mutagenic call (Test System: AMES SALMONELLA TYPHIMURIUM, Strain/Indicator: TA100, Metabolic Activation: NONE, Method: PREINCUBATION (KCL-CONTAINING MEDIUM)): active; positive; mutagenic call (Test System: AMES SALMONELLA TYPHIMURIUM, Strain/Indicator: TA100, Metabolic Activation: NONE, Method: PREINCUBATION (KCL-FREE MEDIUM)): active; positive

Q: What does the source list for C#CC(OC(=O)C1C(C=C(C)C)C1(C)C)/C(C)=C/CC (centres undefined)?
A: mutagenic call (Test System: AMES SALMONELLA TYPHIMURIUM, Strain/Indicator: TA98, Metabolic Activation: NONE, Method: MICROSUSPENSION): inactive; negative; mutagenic call (Test System: AMES SALMONELLA TYPHIMURIUM, Strain/Indicator: TA98, Metabolic Activation: S-9, Method: MICROSUSPENSION): inactive; negative; mutagenic call (Test System: AMES SALMONELLA TYPHIMURIUM, Strain/Indicator: TA100, Metabolic Activation: NONE, Method: MICROSUSPENSION): inactive; negative; mutagenic call (Test System: AMES SALMONELLA TYPHIMURIUM, Strain/Indicator: TA100, Metabolic Activation: S-9, Method: MICROSUSPENSION): inactive; negative

Q: How did the mutagenic call (Test System: AMES SALMONELLA TYPHIMURIUM, Strain/Indicator: TA100, Metabolic Activation: RAT, LIVER, S-9, AROCLOR 1254) turn out when Cc1cccc2cc3c(cc12)-c1cccc2cccc-3c12 was run?
A: active; positive

Q: Which mutagenic call [1] does the source give for C1CSCCO1 here?
A: inactive; negative

Q: What about the mutagenic call [10] of the same compound?
A: inactive; negative

Q: And the mutagenic call [3]?
A: inactive; negative

Q: And the mutagenic call [11]?
A: inactive; negative

Q: What about the mutagenic call [6] of the same compound?
A: inactive; negative

Q: And the mutagenic call [12]?
A: inactive; negative

Q: What about the mutagenic call [8] of the same compound?
A: inactive; negative

Q: What about the mutagenic call [13] of the same compound?
A: inactive; negative

Q: And the mutagenic call (Test System: AMES SALMONELLA TYPHIMURIUM, Strain/Indicator: TA1538, Metabolic Activation: NONE, Method: STANDARD PLATE)?
A: inactive; negative

Q: What about the mutagenic call (Test System: AMES SALMONELLA TYPHIMURIUM, Strain/Indicator: TA1538, Metabolic Activation: S-9, Method: STANDARD PLATE) of the same compound?
A: inactive; negative

Q: How did the mutagenic call [1] turn out when CC/C=C/C=C/C=C/C=C/C=O was run?
A: inactive; negative

Q: And the mutagenic call [3]?
A: inactive; negative

Q: What about the mutagenic call (Test System: AMES SALMONELLA TYPHIMURIUM, Strain/Indicator: TA104, Metabolic Activation: NONE, Method: STANDARD PLATE) of the same compound?
A: inactive; negative

Q: CN1CC[C@]23c4c5ccc(O)c4O[C@H]2[C@@H](O)C=C[C@H]3[C@H]1C5 was tested. Which mutagenic call [2] did it give?
A: inactive; negative

Q: For CC(C)CCNc1snc2ccccc12, which mutagenic call [1] is on record?
A: inactive; negative

Q: And the mutagenic call [10]?
A: inactive; negative

Q: What about the mutagenic call [3] of the same compound?
A: inactive; negative

Q: What about the mutagenic call [11] of the same compound?
A: inactive; negative

Q: And the mutagenic call [6]?
A: inactive; negative

Q: And the mutagenic call [12]?
A: inactive; negative

Q: What about the mutagenic call [8] of the same compound?
A: inactive; negative

Q: What about the mutagenic call [13] of the same compound?
A: inactive; negative

Q: Which mutagenic call [1] does the source give for CCCCOC(=O)c1cccc2cccnc12 here?
A: inactive; negative

Q: And the mutagenic call [2]?
A: inactive; negative

Q: And the mutagenic call [3]?
A: inactive; negative

Q: And the mutagenic call [4]?
A: inactive; negative

Q: What about the mutagenic call [6] of the same compound?
A: inactive; negative

Q: What about the mutagenic call [7] of the same compound?
A: inactive; negative

Q: And the mutagenic call [8]?
A: inactive; negative

Q: And the mutagenic call [9]?
A: inactive; negative

Q: What does the source list for CCOc1ccc(N(O)C(=O)CC(C)O)cc1 (centres undefined)?
A: mutagenic call (Test System: AMES SALMONELLA TYPHIMURIUM, Strain/Indicator: TA100, Metabolic Activation: HAMSTER, LIVER, S-9, KANECHLOR 400 (WITHOUT NADPH GENERATING SYSTEM), Method: PREINCUBATION): active; positive; mutagenic call [5]: inactive; negative
